Assay results published in patent publication US8445497B2, “Compounds for the treatment of hepatitis C” (Bristol-Myers Squibb Company, priority 2010, dated 2013).

Assays:
HCV NS5B = biological target: T1, HCV NS5B (Hepatitis C virus genotype 1b, UniProt Q9WMX2); assay: HCV NS5B RdRp enzyme assay; type: biochemical; settings: HCV NS5B RdRp genotype 1b
T1 construct: The protein was expressed with an 18 amino acid C-terminal truncation to enhance the solubility; made in house; host or cells: E. coli BL21(DE3)
Method: HCV NS5B RdRp cloning, expression, and purification. The cDNA encoding the NS5B protein of HCV, genotype 1b, was cloned into the pET21a expression vector. The protein was expressed with an 18 amino acid C-terminal truncation to enhance the solubility. The E. coli competent cell line BL21(DE3) was used for expression of the protein. Cultures were grown at 37° C. for ˜4 hours until the cultures reached an optical density of 2.0 at 600 nm. The cultures were cooled to 20° C. and induced with 1 mM IPTG. Fresh ampicillin was added to a final concentration of 50 μg/mL and the cells were grown overnight at 20° C.
Cell pellets (3 L) were lysed for purification to yield 15-24 mgs of purified NS5B. The lysis buffer consisted of 20 mM Tris-HCl, pH 7.4, 500 mM NaCl, 0.5% triton X-100, 1 mM DTT, 1 mM EDTA, 20% glycerol, 0.5 mg/ml lysozyme, 10 mM MgCl2, 15 ug/ml deoxyribonuclease I, and Complete TM protease inhibitor tablets (Roche). After addition of the lysis buffer, frozen cell pellets were resuspended using a tissue homogenizer. To reduce the viscosity of the sample, aliquots of the lysate were sonicated on ice using a microtip attached to a Branson sonicator. […]
Standard HCV NS5B RdRp enzyme assay. […] Plates were read on a Packard Top Count NXT after >1 hr incubation at room temperature. […]

[1] = test system: genotype 1a or 1b HCV replicon in Huh-7 cells; assay: HCV replicon luciferase assay; type: cell-based; settings: Hepatitis C virus, 72 h; Huh-7 HCV replicon, Renilla luciferase, 3 days; genotype 1a or 1b not stated
Method: Cell lines. The cell lines used to evaluate compounds consist of a human hepatocyte derived cell line (Huh-7) that constitutively expresses a genotype 1a or 1b HCV replicon containing a Renilla luciferase reporter gene. These cells were maintained in Dulbecco's modified Eagle medium (DMEM) containing 10% FBS, 100 U/mL penicillin/streptomycin and 1.0 mg/mL G418.
HCV replicon luciferase assay. To evaluate compound efficacy, HCV replicon cells were seeded in 96-well plates in DMEM containing 10% FBS at a cell density of 10^4/well. Following incubation at 37° C. overnight, compounds serially diluted in DMSO were added to the cell plates. Alternatively, titrated compounds were transferred to sterile 384-well tissue-culture treated plates and the plates seeded with 50 μL of cells at a density of 2.4×10^3 cells/well in DMEM containing 4% FCS (final DMSO concentration at 0.5%). After 3 days incubation at 37° C., cells were analyzed for Renilla Luciferase activity using the EnduRen substrate (Promega cat #E6485) according to the manufacturer's directions. Briefly, the EnduRen substrate was diluted in DMEM and then added to the plates to a final concentration of 7.5 μM. The plates were incubated for at least 1 h at 37° C. then read on a TopCount NXT Microplate Scintillation and Luminescence Counter (Packard) or Viewlux Imager (PerkinElmer) using a luminescence program. […]

HCV [2] = settings: single agent: transient decrease then rebound; more robust drop with interferon and ribavirin; cited from earlier work
[3] = extended dosing of the combination regimens with interferon and ribavirin; cited from earlier work
HCV [4] = settings: combination therapy, Poynard et al. 1998; cited from earlier work

T1 sequence (Q9WMX2 2420-2992): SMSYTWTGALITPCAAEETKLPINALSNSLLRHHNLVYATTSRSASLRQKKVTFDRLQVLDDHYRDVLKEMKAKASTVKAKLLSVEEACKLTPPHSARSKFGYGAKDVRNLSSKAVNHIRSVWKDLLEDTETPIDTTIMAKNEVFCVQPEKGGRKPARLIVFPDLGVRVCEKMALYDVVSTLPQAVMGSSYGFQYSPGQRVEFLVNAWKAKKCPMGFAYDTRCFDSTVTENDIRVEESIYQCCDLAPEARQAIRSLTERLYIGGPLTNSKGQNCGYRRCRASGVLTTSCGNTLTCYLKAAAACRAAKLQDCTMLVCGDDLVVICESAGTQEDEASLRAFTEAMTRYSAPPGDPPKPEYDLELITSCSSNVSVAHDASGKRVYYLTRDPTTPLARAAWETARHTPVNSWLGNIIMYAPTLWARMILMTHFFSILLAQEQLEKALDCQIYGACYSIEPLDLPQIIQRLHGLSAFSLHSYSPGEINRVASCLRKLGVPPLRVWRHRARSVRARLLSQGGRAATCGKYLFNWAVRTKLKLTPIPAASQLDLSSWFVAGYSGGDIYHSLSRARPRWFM

CNC(=O)c1c(-c2ccc(Oc3ccc(F)cc3)cc2)oc2ccc(-c3cc(C(=O)NC4(c5ncccn5)CC4)c(OC)cc3C)c(F)c12 [4-Fluoro-2-(4-(4-fluorophenoxy)phenyl)-5-(4-methoxy-2-methyl-5-(1-(pyrimidin-2-yl)cyclopropylcarbamoyl)phenyl)-N-methylbenzofuran-3-carboxamide]
IC50 (HCV NS5B): 24 µM | EC50 [1]: 5 µM

CNC(=O)c1c(-c2ccc(F)cc2)oc2cc(N(CCO)S(C)(=O)=O)c(C3CC3)cc12 [HCV-796]
HCV RNA levels in patients (HCV [2]): showed an ability to reduce HCV RNA levels in patients | hepatic toxicity [3]: hepatic toxicity observed

alpha-interferon and ribavirin
sustained efficacy, share of patients (HCV [4]): 40%
